From US7199132B2, “Tropane analogs and methods for inhibition of monoamine transport” (Organix, Inc., priority 2001, dated 2007)

How the values were obtained:
serotonin transporter = target: T1, serotonin transporter (Macaca mulatta, UniProt Q9MYX0); test: Serotonin transporter assay: inhibition of {3H}citalopram binding in caudate-putamen membranes; set-up: species or system rhesus or cynomolgus monkey; details: IC50 (nM) SERT, monkey caudate-putamen, mean of 2 or more independent experiments in triplicate
T1 construct: The serotonin transporter was assayed in caudate-putamen membranes using conditions similar to those for the dopamine transporter; from tissue; host or cells: caudate-putamen membranes of cynomolgus or rhesus monkey brain
T1 sequence (Q9MYX0 whole entry): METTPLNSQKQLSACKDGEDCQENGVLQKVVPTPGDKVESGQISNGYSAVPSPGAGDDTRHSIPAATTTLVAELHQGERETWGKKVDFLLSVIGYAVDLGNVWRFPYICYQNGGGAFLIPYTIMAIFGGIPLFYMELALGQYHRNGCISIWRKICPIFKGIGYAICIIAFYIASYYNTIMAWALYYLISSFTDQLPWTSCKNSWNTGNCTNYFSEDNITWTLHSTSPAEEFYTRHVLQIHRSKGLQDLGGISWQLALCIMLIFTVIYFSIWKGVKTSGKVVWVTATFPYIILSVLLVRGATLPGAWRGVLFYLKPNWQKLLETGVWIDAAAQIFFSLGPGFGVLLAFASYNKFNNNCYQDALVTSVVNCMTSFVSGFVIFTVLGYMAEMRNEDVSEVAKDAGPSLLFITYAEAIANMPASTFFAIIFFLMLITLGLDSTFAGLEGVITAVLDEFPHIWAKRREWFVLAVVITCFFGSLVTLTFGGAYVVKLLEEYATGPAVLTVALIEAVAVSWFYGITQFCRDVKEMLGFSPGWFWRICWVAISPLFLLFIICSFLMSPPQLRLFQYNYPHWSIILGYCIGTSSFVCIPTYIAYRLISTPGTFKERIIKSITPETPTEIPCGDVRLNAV

dopamine transporter = target: T2, dopamine transporter (Macaca fascicularis, UniProt Q9GJT6); test: Dopamine transporter assay: inhibition of {3H}WIN 35,428 binding in caudate-putamen membranes; set-up: species or system rhesus or cynomolgus monkey; details: for SERT/DAT: selectivity ratio IC50 SERT / IC50 DAT; for IC50: IC50 (nM) DAT, inhibition of {3H}WIN 35,428 binding, monkey caudate-putamen, mean of 2 or more independent experiments in triplicate
T2 construct: The caudate-putamen was dissected from coronal slices and yielded 1.4±0.4 g tissue; Membranes were prepared as described previously; from tissue; host or cells: caudate-putamen membranes of cynomolgus or rhesus monkey brain
T2 sequence (Q9GJT6 whole entry): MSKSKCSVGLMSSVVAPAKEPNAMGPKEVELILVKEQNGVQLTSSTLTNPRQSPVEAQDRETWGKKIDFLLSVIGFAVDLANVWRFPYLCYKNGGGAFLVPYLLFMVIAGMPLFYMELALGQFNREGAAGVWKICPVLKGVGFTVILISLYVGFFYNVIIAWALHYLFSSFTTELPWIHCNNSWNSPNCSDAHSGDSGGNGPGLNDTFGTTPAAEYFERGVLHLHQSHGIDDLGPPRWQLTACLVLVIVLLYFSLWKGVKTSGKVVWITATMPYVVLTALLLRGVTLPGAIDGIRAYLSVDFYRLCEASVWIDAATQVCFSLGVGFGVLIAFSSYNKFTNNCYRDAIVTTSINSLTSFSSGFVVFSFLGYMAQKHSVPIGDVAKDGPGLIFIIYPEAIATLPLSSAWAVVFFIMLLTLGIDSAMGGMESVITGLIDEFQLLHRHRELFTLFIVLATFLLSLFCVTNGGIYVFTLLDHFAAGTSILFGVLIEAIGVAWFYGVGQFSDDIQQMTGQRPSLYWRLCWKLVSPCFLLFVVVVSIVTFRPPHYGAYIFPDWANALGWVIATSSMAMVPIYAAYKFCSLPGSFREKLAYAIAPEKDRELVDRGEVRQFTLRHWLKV

COC(=O)[C@H]1[C@@H](c2ccc(Cl)c(Cl)c2)C[C@@H]2[C@@H](O)C[C@H]1N2C (relative stereo) [Compound 14a, 2β-Carbomethoxy-3β-(3,4-dichlorophenyl)-6β-hydroxy-8-methyl-8-azabicyclo{3.2.1}octane]
melting point: 93.5 to 95.5 °C
IC50 (serotonin transporter): 166 nM
SERT/DAT (dopamine transporter): 55

COC(=O)[C@H]1[C@@H](c2ccc3ccccc3c2)C[C@@H]2[C@@H](O)C[C@H]1N2C (relative stereo) [Compound 14b, 2β-Carbomethoxy-3β-(2-naphthyl)-6β-hydroxy-8-methyl-8-azabicyclo{3.2.1}octane]
melting point: 84 to 86 °C
IC50 (serotonin transporter): 34.2 nM
SERT/DAT (dopamine transporter): 4

COC(=O)[C@H]1[C@@H](c2ccccc2)C[C@@H]2[C@@H](O)C[C@H]1N2C (relative stereo) [Compound 14d, 2β-Carbomethoxy-3β-phenyl-6β-hydroxy-8-methyl-8-azabicyclo{3.2.1}octane]
melting point: 150 to 152 °C
IC50 (serotonin transporter): 88000 nM
SERT/DAT (dopamine transporter): 14

COC(=O)[C@@H]1[C@H]2[C@H](O)C[C@@H](C[C@@H]1c1ccc3ccccc3c1)N2C (relative stereo) [Compound 15b, 2β-Carbomethoxy-3β-(2-naphthyl)-7β-hydroxy-8-methyl-8-azabicyclo{3.2.1}octane]
melting point: 207.5 to 208.5 °C
IC50 (serotonin transporter): 5.57 nM
SERT/DAT (dopamine transporter): 4

COC(=O)[C@@H]1[C@H]2C[C@H](O)[C@@H](C[C@H]1c1ccc3ccccc3c1)N2C (relative stereo) [Compound 17b, 2β-Carbomethoxy-3α-(2-naphthyl)-6β-hydroxy-8-methyl-8-azabicyclo{3.2.1}octane]
melting point: 93.5 to 94.5 °C
IC50 (serotonin transporter): 180 nM
SERT/DAT (dopamine transporter): 6

COC(=O)[C@@H]1[C@H]2[C@H](O)C[C@@H](C[C@H]1c1ccc3ccccc3c1)N2C (relative stereo) [Compound 18b, 2β-Carbomethoxy-3α-(2-naphthyl)-7β-hydroxy-8-methyl-8-azabicyclo{3.2.1}octane]
melting point: 140.1 to 141.9 °C
IC50 (serotonin transporter): 94 nM
SERT/DAT (dopamine transporter): 34

COC(=O)[C@@H]1[C@H]2[C@H](O)C[C@@H](C[C@H]1c1ccc(F)cc1)N2C (relative stereo) [Compound 18c, 2β-Carbomethoxy-3α-(4-fluorophenyl)-7β-hydroxy-8-methyl-8-azabicyclo{3.2.1}octane]
melting point: 177.2 to 179 °C
IC50 (serotonin transporter): > 20000 nM
SERT/DAT (dopamine transporter): >120

COC(=O)[C@@H]1[C@H]2C(=O)C[C@@H](C[C@H]1c1ccc(Cl)c(Cl)c1)N2C (relative stereo) [Compound 20, 2β-Carbomethoxy-3α-(3,4-dichlorophenyl)-8-methyl-8-azabicyclo{3.2.1}oct-7-one]
melting point: 163.5 to 164.5 °C
IC50 (serotonin transporter): 7040 nM
IC50 (dopamine transporter): 14.2 nM

CCC(=O)[C@@H]1[C@H]2[C@H](O)C[C@@H](C[C@@H]1c1ccc(Cl)c(Cl)c1)N2C (relative stereo) [Compound 23, 1-{3β-(3,4-Dichlorophenyl)-7β-hydroxy-8-methyl-8-azabicyclo{3.2.1}oct-2-yl}propan-1-one]
melting point: 195.5 to 196.5 °C
IC50 (serotonin transporter): 97 nM
IC50 (dopamine transporter): 0.81 nM

CCC(=O)[C@@H]1[C@H]2[C@H](O)C[C@@H](C[C@H]1c1ccc(Cl)c(Cl)c1)N2C (relative stereo) [Compound 26, 1-{3α-(3,4-Dichlorophenyl)-7β-hydroxy-8-methyl-8-azabicyclo{3.2.1}oct-2-yl}propan-1-one]
melting point: 113.1 to 114.1 °C
IC50 (serotonin transporter): 2520 nM
IC50 (dopamine transporter): 1.1 nM

COC(=O)C1=C(c2ccc3ccccc3c2)CC2C(O)CC1N2C (stereo not drawn) [Compound 7b, 2-Carbomethoxy-3-(2-naphthyl)-6β-hydroxy-8-methyl-8-azabicyclo{3.2.1}oct-2-ene]
melting point: 165 to 167 °C
IC50 (serotonin transporter): 260 nM
SERT/DAT (dopamine transporter): 1

COC(=O)C1=C(c2ccc(F)cc2)CC2C(O)CC1N2C (stereo not drawn) [Compound 7c, 2-Carbomethoxy-3-(4-fluorophenyl)-6β-hydroxy-8-methyl-8-azabicyclo{3.2.1}oct-2-ene]
melting point: 124 to 126 °C
IC50 (serotonin transporter): > 20000 nM
IC50 (dopamine transporter): > 20000 nM
SERT/DAT (dopamine transporter): 1

COC(=O)C1=C(c2ccccc2)CC2C(O)CC1N2C (stereo not drawn) [Compound 7d, 2-Carbomethoxy-3-phenyl-6β-hydroxy-8-methyl-8-azabicyclo{3.2.1}oct-2-ene]
melting point: 165 to 167 °C
IC50 (serotonin transporter): > 100000 nM
IC50 (dopamine transporter): > 150000 nM
SERT/DAT (dopamine transporter): 1

COC(=O)C1=C(c2ccc3ccccc3c2)CC2CC(O)C1N2C (stereo not drawn) [Compound 8b, 2-Carbomethoxy-3-(2-naphthyl)-7β-hydroxy-8-methyl-8-azabicyclo{3.2.1}oct-2-ene]
melting point: 164.2 to 165.2 °C
IC50 (serotonin transporter): 677 nM
SERT/DAT (dopamine transporter): 15

COC(=O)C1C(c2ccc(F)cc2)CC2C(O)CC1N2C (stereo not drawn) [Compound 14c, 2β-Carbomethoxy-3β-(4-fluorophenyl)-6β-hydroxy-8-methyl-8-azabicyclo{3.2.1}octane]
melting point: 162 to 164 °C
IC50 (serotonin transporter): > 20000 nM
SERT/DAT (dopamine transporter): >42
